# Test results: patent US20200138827A1, “SMALL MOLECULE MODULATORS OF HUMAN STING” (Curadev Pharma Limited, priority 2017, published 2020)
# Target: T1, WT/R232 STING protein (Homo sapiens, UniProt Q86WV6, H232R)
# T1 construct: host or cells: HEK293T
# Test: Luciferase reporter assay in HEK293T-hSTING-Luciferase cells, WT/R232
# Type: cell-based
# Settings: 20 hr stimulation, read-out: R232 Activity (EC50 range)
# Excerpt: • a) Stable STING expressing cells—Stable HEK293T STING-expressing cell lines were generated using plasmids purchased from Invivogen, Calif., USA, that contain STING cDNA cloned into the pUNO-1 vector under hEF1-HTLV promoter and containing the Blasticidin selection cassette. The plasmids hSTING(R232), hSTING(H232), hSTING(HAQ) were directly procured from Invivogen while hSTING (AQ) and hSTING (Q) were derived from hSTING(HAQ) and hSTING (R232) plasmids respectively by using a PCR based site directed mutagenesis method. These vectors were individually transfected into HEK293T cells using Lipofectamine (Invitrogen) and transfected cells were selected under Blasticidin selection. These transfected cells were further subjected to clonal selection using the limiting dilution method to obtain clonally pure populations of HEK cells transfected with each of the above mentioned human STING variants. Only those clones were selected in which ligand independent activation of STING was minimal. • b) Stable Luciferase reporter gene expressing cells—Stable HEK293T Luciferase reporter gene expressing cell lines were generated using pCDNA4 plasmids under an IRF-inducible promoter. This promoter is comprised of five tandem interferon-stimulated response elements (ISRE) fused to an ISG54 minimal promoter. This vector was transfected into HEK293T cells using Lipofectamine (Invitrogen) and transfected cells were selected under Zeocin selection. These transfected cells were further subjected to clonal selection using the limiting dilution method to obtain clonally pure populations of HEK cells transfected the Luciferase reporter construct. Only those clones were selected in which ligand independent induction of luciferase was minimal.
# 5×10^5 clonally selected HEK293T-hSTING-Luciferase cells were seeded in 384-well plates in growth medium and stimulated with novel compounds. After 20 hr of stimulation supernatant were removed and secretary reporter gene activity were measured using the Quanti-Luc detection system (Invivogen) on a Spectramax i3X luminometer.
# All compounds were first tested in a primary screen using WT/R232 STING protein to obtain a ‘fold-induction’ over baseline levels of protein activity.
# T1 sequence (Q86WV6 whole entry H232R): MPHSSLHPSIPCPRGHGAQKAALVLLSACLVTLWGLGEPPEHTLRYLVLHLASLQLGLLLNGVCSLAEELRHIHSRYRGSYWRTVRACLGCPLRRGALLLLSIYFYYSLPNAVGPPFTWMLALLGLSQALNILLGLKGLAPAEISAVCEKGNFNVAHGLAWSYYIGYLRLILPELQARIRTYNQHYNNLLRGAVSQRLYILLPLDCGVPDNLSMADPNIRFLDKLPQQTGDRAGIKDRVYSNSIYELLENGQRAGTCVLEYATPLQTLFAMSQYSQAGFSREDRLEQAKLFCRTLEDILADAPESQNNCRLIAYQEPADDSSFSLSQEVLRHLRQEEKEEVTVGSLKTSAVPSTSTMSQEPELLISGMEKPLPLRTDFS
row,SMILES,EC50 [µM]
1,"Cn1cccc1CNC(=O)c1ccc2c(c1)N(Cc1ccccc1)C(=O)CS2 [Example 10, 4-benzyl-N-((1-methyl-1H-pyrrol-2-yl)methyl)-3-oxo-3,4-dihydro-2H-benzo[b-1,4]thiazine-6-carboxamide]",> 10
2,"O=C(NCc1ccco1)c1ccc2c(c1)N(Cc1ccccc1OC(F)(F)F)C(=O)CS2 [Example 91, N-(furan-2-ylmethyl)-3-oxo-4-(2-(trifluoromethoxy)benzyl)-3,4-dihydro-2H-benzo[b-1,4]thiazine-6-carboxamide]",> 10
3,"CN(C)CC(NC(=O)c1ccc2c(c1)N(Cc1ccccc1)C(=O)CS2)c1ccccc1 (stereo not shown) [Example 53, 4-benzyl-N-(2-(dimethylamino)-1-phenylethyl)-3-oxo-3,4-dihydro-2H-benzo[b-1,4]thiazine-6-carboxamide]",> 10
4,"O=C(NCC1CCCCC1)c1cnc2c(c1)N(Cc1c(F)cccc1Cl)C(=O)CS2 [Example 179, 1-(2-chloro-6-fluorobenzyl)-N-(cyclohexyl-methyl)-2-oxo-2,3-dihydro-1H-pyrido[2,3-b-1,4]thiazine-7-carboxamide]",> 10
5,"Cc1cc(CN2C(=O)CSc3ccc(C(=O)NCc4ccco4)cc32)no1 [Example 85, N-(furan-2-ylmethyl)-4-((5-methylisoxazol-3-yl)methyl)-3-oxo-3,4-dihydro-2H-benzo[b-1,4]thiazine-6-carboxamide]",> 10
6,"O=C(NCc1cccc(-c2ccccc2)c1)c1ccc2c(c1)N(Cc1c(F)cccc1Cl)C(=O)CS2 [Example 47, N-([1,1′-biphenyl]-3-ylmethyl)-4-(2-chloro-6-fluorobenzyl)-3-oxo-3,4-dihydro-2H-benzo[b][1,4] thiazine-6-carboxamide]",> 10
7,"O=C(NCc1ccsc1)c1ccc2c(c1)N(Cc1ccccc1)C(=O)CS2 [Example 61, 4-benzyl-3-oxo-N-(thiophen-3-ylmethyl)-3,4-dihydro-2H-benzo[b-1,4]thiazine-6-carboxamide]",1 to 10
8,"O=C(NCCc1ccccc1)c1ccc2c(c1)N(Cc1c(F)cccc1Cl)C(=O)CS2 [Example 129, 4-(2-chloro-6-fluorobenzyl)-3-oxo-N-phenethyl-3,4-dihydro-2H-benzo[b-1,4]thiazine-6-carboxamide]",> 10
9,"O=C(NCCC1CCCCC1)c1ccc2c(c1)N(Cc1ccccc1)C(=O)CS2 [Example 81, 4-benzyl-N-(2-cyclohexylethyl)-3-oxo-3,4-dihydro-2H-benzo[b-1,4]thiazine-6-carboxamide]",> 10
10,"O=C(NCc1ccco1)c1ccc2c(c1)N(CCc1cccc(C(F)(F)F)c1)C(=O)CS2 [Example 92, N-(furan-2-ylmethyl)-3-oxo-4-(3-(trifluoromethyl)phenethyl)-3,4-dihydro-2H-benzo[b-1,4]thiazine-6-carboxamide]",> 10
11,"O=C(O)CC1Sc2ccc(C(=O)NCc3ccco3)cc2N(Cc2ccccc2F)C1=O (stereo not shown) [Example 175, 2-(4-(2-fluorobenzyl)-6-((furan-2-ylmethyl)carbamoyl)-3-oxo-3,4-dihydro-2H-benzo[b][1,4]thiazin-2-yl)acetic acid]",> 10
12,"CC1(CC(=O)O)Sc2ccc(C(=O)NCc3ccco3)cc2N(Cc2ccccc2F)C1=O (stereo not shown) [Example 139, 2-(4-(2-fluorobenzyl)-6-((furan-2-ylmethyl)carbamoyl)-2-methyl-3-oxo-3,4-dihydro-2H-benzo[b-1,4]thiazin-2-yl)acetic acid]",> 10
13,"O=C(NC(c1ccccc1)C1CCCCC1)c1ccc2c(c1)N(Cc1ccccc1F)C(=O)CS2 (stereo not shown) [Example 110, N-(cyclohexyl (phenyl)methyl)-4-(2-fluorobenzyl)-3-oxo-3,4-dihydro-2H-benzo[b][1,4] thiazine-6-carboxamide]",> 10
14,"Cc1cccc(CN2C(=O)CSc3ccc(C(=O)NCC4CCCCC4)cc32)c1C [Example 25, N-(cyclohexyl-methyl)-4-(2,3-dimethyl-benzyl)-3-oxo-3,4-dihydro-2H-benzo[b-1,4]thiazine-6-carboxamide]",> 10
15,"CS(=O)(=O)NCCC1Sc2ccc(C(=O)NCc3c(F)cc(F)cc3F)cc2N(Cc2cc(F)cc(F)c2)C1=O (stereo not shown) [Example 170, 4-(3,5-difluorobenzyl)-2-(2-(methyl-sulfonamido)ethyl)-3-oxo-N-(2,4,6-trifluorobenzyl)-3,4-dihydro-2H-benzo[b] [1,4]thiazine-6-carboxamide]",> 10
16,"O=C(NCc1ccco1)c1ccc2c(c1)N(Cc1nc3ccccc3s1)C(=O)CS2 [Example 6, 4-(benzo[d]thiazol-2-ylmethyl)-N-(furan-2-ylmethyl)-3-oxo-3,4-dihydro-2H-benzo[b-1,4]thiazine-6-carboxamide]",> 10

# Now from value to compound:
row,EC50 [µM],SMILES
1,> 10,"O=C(NCc1cc2ccncc2o1)c1ccc2c(c1)N(Cc1cc(F)cc(F)c1)C(=O)CC2 [Example 272, 1-(3,5-difluorobenzyl)-N-(furo[2,3-c]pyridin-2-ylmethyl)-2-oxo-1,2,3,4-tetrahydroquinoline-7-carboxamide]"
2,1 to 10,"O=C(NCc1ccc(F)cc1F)c1ccc2c(n1)N(Cc1ccc(F)cc1)C(=O)CC2 [Example 282, N-(2,4-difluorobenzyl)-8-(4-fluorobenzyl)-7-oxo-5,6,7,8-tetrahydro-1,8-naphthyridine-2-carboxamide]"
3,> 10,"O=C(NCc1c(F)cc(F)cc1F)c1cnc2c(c1)N(Cc1c(F)cccc1Cl)C(=O)CO2 [Example 239, 1-(2-chloro-6-fluorobenzyl)-2-oxo-N-(2,4,6-trifluorobenzyl)-2,3-dihydro-1H-pyrido[2,3-b-1,4]oxazine-7-carboxamide]"
4,> 10,"O=C(NCc1c(F)cc(F)cc1F)c1cnc2c(c1)N(Cc1cc(F)cc(F)c1)C(=O)CO2 [Example 236, 1-(3,5-difluorobenzyl)-2-oxo-N-(2,4,6-trifluorobenzyl)-2,3-dihydro-1H-pyrido[2,3-b-1,4]oxazine-7-carboxamide]"
5,> 10,"Cc1noc(CNC(=O)c2cnc3c(c2)N(Cc2cc(F)cc(F)c2)C(=O)C(C)S3)n1 (stereo not shown) [Example 212, 1-(3,5-difluorobenzyl)-3-methyl-N-((3-methyl-1,2,4-oxadiazol-5-yl)methyl)-2-oxo-2,3-dihydro-1H-pyrido[2,3-b] [1,4] thiazine-7-carboxamide]"
6,> 10,"Cc1ccc(CNC(=O)c2cnc3c(c2)N(Cc2cc(F)cc(F)c2)C(=O)C(C)(CO)S3)o1 (stereo not shown) [Example 209, 1-(3,5-difluorobenzyl)-3-(hydroxymethyl)-3-methyl-N-((5-methylfuran-2-yl)methyl)-2-oxo-2,3-dihydro-1H-pyrido [2,3-b] [1,4]thiazine-7-carboxamide]"
7,> 10,"N#Cc1cc(C(=O)NCc2ccco2)cc2c1SCC(=O)N2Cc1ccccc1 [Example 219, 4-Benzyl-8-cyano-N-(furan-2-ylmethyl)-3-oxo-3,4-dihydro-2H-benzo[b-1,4]thiazine-6-carboxamide]"
8,1 to 10,"O=C(NCc1c(F)cc(F)cc1F)c1cnc2c(c1)N(Cc1cc(F)cc(F)c1)C(=O)CC2 [Example 276, 5-(3,5-Difluorobenzyl)-6-oxo-N-(2,4,6-trifluorobenzyl)-5,6,7,8-tetrahydro-1,5-naphthyridine-3-carboxamide]"
9,1 to 10,"CC1Sc2ccc(C(=O)NCc3c(F)cc(F)cc3F)nc2N(Cc2cc(F)cc(F)c2)C1=O (stereo not shown) [Example 185, 4-(3,5-difluorobenzyl)-2-methyl-3-oxo-N-(2,4,6-trifluorobenzyl)-3,4-dihydro-2H-pyrido[3,2-b-1,4]thiazine-6-carboxamide]"
